Data: article PMC8231342, “Potency of bisresorcinol from Heliciopsis terminalis on skin aging: in vitro bioactivities and molecular interactions” (PeerJ, 2021)
Values joined by “and” are separate entries in the source; they are usually repeats but may differ in a detail not shown here. Identical values can stand only once. Like-named read-outs stand apart in the source and are kept apart here.

Experiments:
Type in all cases: biochemical
[1] = tested on: Collagenase from Clostridium histolyticum (EC.3.4.24.3); assay: Collagenase inhibition assay (fluorogenic peptide substrate)
Procedure: The recent anti-collagenase assay was modified from that previously described by [Widyowati et al. (2016)]. In brief, 50 mmol L^−1 tricine buffer pH 7.5 supplemented with 400 mmol L^−1 NaCl and 10 mmol L^−1 CaCl2 was used as the buffering diluent. Collagenase from Clostridium histolyticum (EC.3.4.24.3) was dissolved in the buffer to a concentration of 1 mg L^−1. The enzyme substrate, MOCAc-PRO-Leu-Gly-Leu-A2pr (Dnp)-Ala-Arg-NH2, was prior dissolved in DMSO and subsequently diluted in the buffer to a concentration of 1 mmol L^−1. A sample dissolved in DMSO was diluted to different concentrations by using the buffer. A 2-µl sample solution was incubated with 100 µl enzyme solution at 37 °C for 10 min. Then, a 50-µl substrate was added and thoroughly mixed. Fluorescence emission (F) at 405 nm was immediately recorded and continually monitored for 30 min using a wavelength of 320 nm for excitation. Caffeic acid was used as a position control (Fig. 1). Negative control was performed with water. The percent inhibition (%) was calculated from the equation below:
%Inhibition={1–(Fsam,30–Fsam,0)÷(Fcont,30–Fcont,0)}×100.

[2] = target: porcine pancreatic elastase (EC.3.4.21.36) (Sus scrofa, UniProt P00772); assay: Elastase inhibition assay (SANA substrate)
porcine pancreatic elastase (EC.3.4.21.36), sequence (P00772 27-266): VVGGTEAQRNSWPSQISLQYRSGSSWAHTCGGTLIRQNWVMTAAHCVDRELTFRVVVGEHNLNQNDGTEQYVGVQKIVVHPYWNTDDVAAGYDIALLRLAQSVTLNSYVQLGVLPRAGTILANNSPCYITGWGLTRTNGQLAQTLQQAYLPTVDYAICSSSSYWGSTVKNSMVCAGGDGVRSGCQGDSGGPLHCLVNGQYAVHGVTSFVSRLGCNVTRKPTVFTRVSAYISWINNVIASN
Procedure: The assay according to [Abhijit & Manjushree (2010)] was applied with some modifications. Briefly, the buffer system was 0.2 mM Tris-HCl buffer (pH 8.0). A solution of 1 µg mL^−1 porcine pancreatic elastase (EC.3.4.21.36) was prepared in sterile water. The enzyme substrate, N-Succinyl-Ala-Ala-Ala-p-nitroanilide (SANA), was dissolved in the buffer to a concentration of 80 mmol L^−1. A sample dissolved in DMSO was diluted to various concentrations by using the buffer. A 100-µl sample solution was mixed with 50 µl enzyme solution and incubated for 15 min. After that 50 µl of the enzyme substrate solution was added and thoroughly mixed. The OD410 was measured immediately (0 min) and after incubation overnight (o/n) at 37 °C by using a microplate reader. Ursolic acid was used as a positive control (Fig. 1), and water was used as a negative control. The percentage inhibition (%) was calculated by the following equation:
%Inhibition={1–[(Asam,o/n–Asam,0)÷(Acont,o/n–Acont,0)]}×100.

[3] = target: Mushroom tyrosinase (EC.1.14.18.1) (Agaricus bisporus, UniProt C7FF04); assay: Tyrosinase inhibition assay (L-tyrosine substrate); conditions: for inhibition at 10 µg/mL: conc 10 ug/ml; for inhibition at 12.5 µg/mL: conc 12.5 ug/ml; for inhibition at 15 µg/mL: conc 15 ug/ml
Mushroom tyrosinase (EC.1.14.18.1), sequence (C7FF04 2-392): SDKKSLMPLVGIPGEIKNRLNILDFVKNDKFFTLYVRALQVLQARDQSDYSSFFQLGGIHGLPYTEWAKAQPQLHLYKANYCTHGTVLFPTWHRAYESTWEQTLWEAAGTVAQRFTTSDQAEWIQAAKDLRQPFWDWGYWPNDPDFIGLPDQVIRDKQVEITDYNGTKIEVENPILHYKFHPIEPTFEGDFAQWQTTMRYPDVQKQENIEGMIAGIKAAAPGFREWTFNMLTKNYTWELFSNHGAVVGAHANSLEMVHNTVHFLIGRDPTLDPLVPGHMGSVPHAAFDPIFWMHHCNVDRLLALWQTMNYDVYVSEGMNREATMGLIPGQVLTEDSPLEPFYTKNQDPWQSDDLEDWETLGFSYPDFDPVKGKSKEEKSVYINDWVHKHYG
Procedure: In brief, the assay was carried out in 0.05 mol L^−1 phosphate buffer pH 6.8. Mushroom tyrosinase (EC.1.14.18.1) was dissolved in the buffer to a concentration of 100 units mL^−1. L-tyrosine, an enzyme substrate, was prepared to a concentration of 0.25 mg mL^−1 in the buffer. […] Into a well of 96-well plates, 10 µl sample and 40 µl L-tyrosine solution were mixed and incubated for 10 min at room temperature. After that 50 µl enzyme solution was inoculated and mixed thoroughly. The reaction was stopped afterward by incubation on ice for 1 min. […] The percentage inhibition (%) was calculated by the equation as follows:
%Inhibition={1–(Asam,10–Asam,0)÷(Acont,10–Acont,0)}×100.

[4] = individual replicates, read-out: % inhibition elastase, replicates 1-3
[5] = read-out: % inhibition elastase, ave
[6] = individual replicates, read-out: % inhibition tyrosinase, replicates 1-3
[7] = read-out: % inhibition tyrosinase, ave
[8] = individual replicates, read-out: % inhibition tyrosinase, N1-N3

Oc1cc(O)cc(CCCCCCCC=CCCCCCCCc2cc(O)cc(O)c2)c1 [Bisresorcinol, (8′Z)-3,5-dihydroxy-1-[16′-(3″,5″-dihydroxyphenyl)-8′-hexadecen-1′-yl]benzene]
% inhibition collagenase, ave ([1]; 56 uM): 0.0%
% inhibition collagenase, ave ([1]; 113 uM): 33.0%
% inhibition collagenase, ave ([1]; 226 uM): 81.31% and 81.3%
ic50 collagenase, ave ([1]; average of N1-N3): 69.5 µg/mL
% inhibition collagenase, ave ([1]; conc 25 ug/ml): 0.00%
% inhibition collagenase, N1-N3 ([1]; conc 25 ug/ml, individual replicates): 0.00% and 0% (2×)
% inhibition collagenase, ave ([1]; conc 50 ug/ml): 32.97%
% inhibition collagenase, N1-N3 ([1]; conc 50 ug/ml, individual replicates): 38.51% and 27.91% and 32.48%
% inhibition collagenase, ave ([1]; conc 100 ug/ml): 81.31%
% inhibition collagenase, N1-N3 ([1]; conc 100 ug/ml, individual replicates): 82.28% and 81.54% and 80.12%
ic50 collagenase, N1-N3 ([1]; individual replicates): 70.18 µg/mL and 67.47 µg/mL and 70.79 µg/mL
IC50 ([1]; individual replicates, read-out: ic50 collagenase, N1-N3): 158 µM and 152 µM and 160 µM
IC50 ([1]; mean ± SEM, triplicate, read-out: IC50 collagenase inhibition): 157 ± 2.3 µM
inhibition at 23 µM ([2]; 23 uM, read-out: % inhibition elastase, ave): 20.8%
inhibition at 34 µM [2, 4]: 46.5%
inhibition at 34 µM [2, 5]: 34.7%
inhibition at 45 µM [2, 4]: 99.6%
inhibition at 45 µM [2, 5]: 99.7%
inhibition at 50 µM ([2]; at 50 µmol L^−1, read-out: maximum inhibition of elastase): 100%
IC50 ([2]; average of N1-N3, read-out: ic50 elastase, ave (converted)): 33.4 µM
% inhibition elastase, N1-N3 ([2]; conc 10 ug/ml, individual replicates): 30.14% and 20.28% and 11.87%
inhibition at 10 µg/mL ([2]; conc 10 ug/ml, read-out: % inhibition elastase, ave): 20.8%
% inhibition elastase, N1-N3 ([2]; conc 15 ug/ml, individual replicates): 30.89% and 26.77%
inhibition at 15 µg/mL ([2]; conc 15 ug/ml, individual replicates, read-out: % inhibition elastase, N1-N3): 46.5%
inhibition at 15 µg/mL ([2]; conc 15 ug/ml, read-out: % inhibition elastase, ave): 34.7%
% inhibition elastase, N1-N3 ([2]; conc 20 ug/ml, individual replicates): 99.58% and 99.76%
inhibition at 20 µg/mL ([2]; conc 20 ug/ml, individual replicates, read-out: % inhibition elastase, N1-N3): 99.6%
inhibition at 20 µg/mL ([2]; conc 20 ug/ml, read-out: % inhibition elastase, ave): 99.7%
IC50 ([2]; individual replicates, read-out: ic50 elastase, N1-N3 (converted)): 35 µM and 31.2 µM and 34 µM and 34.8 µM and 31 µM and 33.8 µM
IC50 ([2]; mean ± SEM, triplicate, read-out: IC50 elastase inhibition): 33.2 ± 1.1 µM
inhibition at 10 µM [3, 6]: 52.4%
inhibition at 10 µM [3, 7]: 44.4%
inhibition at 28 µM [3, 6]: 81.8%
inhibition at 28 µM [3, 7]: 78.5%
inhibition at 30 µM [3, 6]: 81.8%
inhibition at 30 µM [3, 7]: 78.5%
inhibition at 34 µM [3, 6]: 86.3%
inhibition at 34 µM [3, 7]: 84.3%
inhibition at 40 µM [3, 6]: 119%
inhibition at 40 µM [3, 7]: 100%
inhibition at 50 µM ([3]; 50 uM, individual replicates, read-out: % inhibition tyrosinase, replicates 1-3): 138%
inhibition at 50 µM ([3]; 50 uM, read-out: % inhibition tyrosinase, ave): 100%
inhibition at 50 µM ([3]; at 50 µmol L^−1, read-out: tyrosinase inhibition): 100%
inhibition at 10 µg/mL [3, 8]: 52.4%
inhibition at 10 µg/mL [3, 7]: 44.4%
inhibition at 12.5 µg/mL [3, 8]: 81.8%
inhibition at 12.5 µg/mL [3, 7]: 78.5%
inhibition at 15 µg/mL [3, 8]: 86.3%
inhibition at 15 µg/mL [3, 7]: 84.2%
